Experimental data taken from patent US12528822B2, “Cycloalkane-1,3-diamine derivative” (Daiichi Sankyo Company, Limited, priority 2018, dated 2026).
Structures can show the parent of a compound that is named as a salt. Where two headings read alike, the source gives them in different places.

Columns and labels:
[1] = system: MLL-AF9-overexpressing AML-like cells (MA9 cells); experiment: Differentiation-inducing activity in MLL-AF9-overexpressing AML-like cells (flow cytometry of Gr-1 and cKit); type: cell-based, mouse; conditions: 7 days, 5 or 20 nM (Ex. 25, 27), 150 or 300 nM (Ex. 26), 50 or 100 nM (Ex. 22), compared with the control group (DMSO); for rate of the myeloid cell differentiation antigen Gr-1-expressing cells in living cells: FIG. 10; for rate of the cKit-expressing cells in living cells: FIG. 11
Procedure: The human MLL-AF9 fusion gene was introduced into cKit-positive mononuclear cells isolated from the myeloid of C57BL6 mouse, by retrovirus infection. MLL-AF9-overexpressing AML-like cells (MA9 cells) that acquired abnormal growth ability were established by liquid-culturing the cells after virus infection for a long period of time. Serum-free medium (GlutaMax, P/S, Stem Pro-34 medium containing 10 ng/ml mIL-3, 50 ng/mL mSCF and 10 ng/mL human Oncostatin M) was used as a culture medium.
(2 μL/well) (day 0). After culturing for 7 days (day 7), the cells were collected, and blocked with 5% FBS/PBS containing 10% Mouse BD Fc Block (BD) for 10 minutes at room temperature, and then any of various antibodies (Gr-1-FITC or CD117 (cKit)-APC: Biolegend) was added thereto at a final concentration of 0.4 μg/sample, and the mixture was reacted on ice for 30 minutes. Then, dead cell staining dye DAPI (0.2 mg/mL) was added thereto at so as to be 1 μL/sample, and the reaction was carried out on ice for additional 2 minutes under shading. Then, the expression level of each surface antigen of the cells was measured by NovoCyte flow cytometer (LMS). The obtained data were analyzed by FlowJo software (Becton Dickinson), and the rate of each surface antigen-expressing cells in the living cells excluding dead cells was graphed.

K562 cells = experiment: Cell growth inhibitory activity, K562 cells (CellTiter-Glo, 384-well); type: cell-based; conditions: Homo sapiens
Procedure: (§1) Each cell was purchased from American Type Culture Collection (ATCC). […] The prepared drug-containing plate was stored at −30° C. until use, and thawed before use.
(§2) The suspension of each cells was prepared with 10% FBS RPMI1640 culture medium so as to be 1000 cells/mL (K562) or 10000 cells/mL (MV-4-11, MOLM-13), and seeded on the drug-containing plate (40 μL/well) (day 0). The cells were cultured for additional 3 or 7 days. ATP measurement reagent (CellTiter-Glo (registered trademark, Promega Corporation) 2.0 Assay, model number G9242, Promega Corporation) was added to each well at 10 μL/well, on the day of the drug addition (day 0) and 3 days (day 3) or 7 days (day 7) after the drug addition. After affixing a black sticker on the bottom surface, the mixture was stirred using a microplate mixing deaeration machine (model name, Weltornado FK-62, Sakaki Dengyo Co., Ltd.) (stirring conditions, revolution 9, rotation 7, time 12).
(§3) The cell growth of the drug-added group from day 0 to day 3 or day 7 was calculated as T/C %, when the cell growth of the drug-free group was considered as 100%.

MV-4-11 cells = experiment: Cell growth inhibitory activity, MV-4-11 cells (CellTiter-Glo, 384-well); type: cell-based; conditions: Homo sapiens
Procedure: as §1, §2, §3

MOLM-13 cells = experiment: cells; type: cell-based; conditions: Homo sapiens
Procedure: as §1, §2, §3

[2] = target: T1, menin (Flag tagged) and biotinylated MLL1 peptide (1-46aa) (Homo sapiens, UniProt O00255); experiment: biochemical
T1 sequence (O00255 1-610): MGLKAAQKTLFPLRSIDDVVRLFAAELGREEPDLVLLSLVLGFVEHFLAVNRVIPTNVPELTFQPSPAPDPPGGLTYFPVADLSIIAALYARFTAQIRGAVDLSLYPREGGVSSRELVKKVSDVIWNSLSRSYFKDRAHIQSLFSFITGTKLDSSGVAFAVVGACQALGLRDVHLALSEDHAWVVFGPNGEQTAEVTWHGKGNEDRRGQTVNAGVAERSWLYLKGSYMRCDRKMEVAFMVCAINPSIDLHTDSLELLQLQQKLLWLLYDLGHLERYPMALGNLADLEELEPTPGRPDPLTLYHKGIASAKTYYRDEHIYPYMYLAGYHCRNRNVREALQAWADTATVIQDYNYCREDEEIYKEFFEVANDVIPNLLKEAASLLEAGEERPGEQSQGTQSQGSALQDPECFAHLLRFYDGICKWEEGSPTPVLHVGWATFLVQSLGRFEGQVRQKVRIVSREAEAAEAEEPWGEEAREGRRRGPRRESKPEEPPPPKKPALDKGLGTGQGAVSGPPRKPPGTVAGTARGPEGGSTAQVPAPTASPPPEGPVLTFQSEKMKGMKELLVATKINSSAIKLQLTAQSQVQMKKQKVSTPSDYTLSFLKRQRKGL
Procedure: Then, the fluorescence signal by AlphaLISA (registered trademark, PerkinElmer Co., Ltd.) was measured using a plate reader (PerkinElmer Co., Ltd., EnVisionXcite).

| SMILES | rate of the myeloid cell differentiation antigen Gr-1-expressing cells in living cells [1] | rate of the cKit-expressing cells in living cells [1] | GI50 (K562 cells; 72 h, K562, Day 3, read-out: GI50 (μM) Day 3 K562) [µM] | GI50 (K562 cells; 168 h, K562, Day 7, read-out: GI50 (μM) Day 7 K562) [µM] | GI50 (MV-4-11 cells; 72 h, MV4;11, Day 3, read-out: GI50 (μM) Day 3 MV4) [µM] | GI50 (MV-4-11 cells; 168 h, MV4;11, Day 7, read-out: GI50 (μM) Day 7 MV4) [µM] | GI50 (MOLM-13 cells; MOLM-13, 72 h, read-out: GI50 (μM) Day 3 MOLM-13) [µM] | GI50 (MOLM-13 cells; MOLM-13, 168 h, read-out: GI50 (μM) Day 7 MOLM-13) [µM] | IC50 [2] [nM] |
| --- | --- | --- | --- | --- | --- | --- | --- | --- | --- |
| COc1cc(-c2ccc(CN[C@H]3C[C@@H](O)[C@@H](N(C)c4ncnc5sc(CC(F)(F)F)cc45)C3)cc2)cnc1C#N [Example 22, 5-[4-({[(1R,3R,4S)-3-hydroxy-4-{methyl[6-(2,2,2-trifluoroethyl)thieno[2,3-d]pyrimidin-4-yl]amino}cyclopentyl]amino}methyl)phenyl]-3-methoxypyridine-2-carbonitrile Hydrochloride] | increased the rate of Gr-1-positive cells | reduced the rate of cKit-positive cells | – | – | – | – | – | – | – |
| COc1cc(-c2ccc(CN[C@H]3C[C@@H](O)[C@@H](N(C)c4ncnc5sc(CC(F)(F)F)cc45)C3)cc2)nnc1OC [Example 25, (1R,2S,4R)-4-({[4-(5,6-dimethoxypyridazin-3-yl)phenyl]methyl}amino)-2-{methyl[6-(2,2,2-trifluoroethyl)thieno[2,3-d]pyrimidin-4-yl]amino}cyclopentan-1-ol Hydrochloride] | increased the rate of Gr-1-positive cells | reduced the rate of cKit-positive cells | – | – | – | – | – | – | – |
| COc1nc(N(C)[C@H]2C[C@@H](NCc3ccc(-c4cc(OC)c(OC)nn4)cc3)C[C@H]2O)c2cc(CC(F)(F)F)sc2n1 [Example 27, (1R,2S,4R)-4-({[4-(5,6-dimethoxypyridazin-3-yl)phenyl]methyl}amino)-2-{[2-methoxy-6-(2,2,2-trifluoroethyl)thieno[2,3-d]pyrimidin-4-yl](methyl)amino}cyclopentan-1-ol Hydrochloride] | increased the rate of Gr-1-positive cells | reduced the rate of cKit-positive cells | – | – | – | – | – | – | – |
| FC(F)(F)Cc1cc2c(N[C@@H]3CCC[C@H](NCc4ccc(NC5CCCCC5)cc4)C3)ncnc2s1 [Example 44, (1S,3R)-N^1-{[4-(cyclohexylamino)phenyl]methyl}-N^3-[6-(2,2,2-trifluoroethyl)thieno[2,3-d]pyrimidin-4-yl]cyclohexane-1,3-diamine hydrochloride] | – | – | 2.75 | 1.91 | 1.89 | 1.53 | 2.73 | 2.93 | 335 |
